Results: patent US8722849B2, “Polypeptides” (Novo Nordisk A/S, priority 2011, dated 2014)
In brackets after ≈: the same amount, converted by molar mass. Read-outs that look alike come from different tables or passages of the source. Starred links: 1 amine or outer side, 2 acyl side, 3 side chain; linkers in the order of their positions; H or OH if unused. Positions of bridges follow the written chain, without caps; N, C: chain ends. Residues, ends and D or L forms follow the SMILES beside them. Groups on a side chain read outwards from the residue. *: point of attachment. C20 diacid = O=C(O)CCCCCCCCCCCCCCCCCCC(=O)*; γGlu = O=C(O)[C@H](CCC(=O)[*:2])N[*:1]; AEEA = NCCOCCOCC(=O)O

Test: Assay (IV) determination of solubility
Format: physicochemical
How it was run: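 Polypeptide in water (~500 nmol/ml stock) was mixed 1:1 with 100 mM buffers from pH 3.0 to 8.0 (glycylglycine pH 3.0–5.0; bistrispropane pH 6.0–8.0). After 18 hours at room temperature, samples were centrifuged and the polypeptide remaining in solution was quantified by HPLC.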

[1] = pH 3, pH 3.0, read-out: Solubility pH 3.0
[2] = pH 4, pH 4.0, 18 hours at room temperature, Table 2, read-out: Solubility pH 4.0
[3] = pH 4, pH 4.0, read-out: Solubility pH 4.0
[4] = pH 5, pH 5.0, read-out: Solubility pH 5.0
[5] = pH 6, pH 6.0, read-out: Solubility pH 6.0
[6] = pH 6.5, pH 6.5, read-out: Solubility pH 6.5
[7] = pH 7, pH 7.0, read-out: Solubility pH 7.0
[8] = pH 7.5, pH 7.5, read-out: Solubility pH 7.5
[9] = pH 7, pH 7.0, 18 hours at room temperature, Table 3, read-out: Solubility pH 7.0
[10] = pH 8, pH 8.0, read-out: Solubility pH 8.0

| SMILES | solubility [1] [µM] | solubility [2] [µM] | solubility [3] [µM] | solubility [4] [µM] | solubility [5] [µM] | solubility [6] [µM] | solubility [7] [µM] | solubility [8] [µM] | solubility [9] [µM] | solubility (pH 7, pH 7.0, Table 8, read-out: Solubility pH 7.0) [µM] | solubility (pH 7, pH 7.0, Table 9, read-out: Solubility pH 7.0) [µM] | solubility (pH 7.5, pH 7.5, Table 9, read-out: Solubility pH 7.5) [µM] | solubility [10] [µM] |
| --- | --- | --- | --- | --- | --- | --- | --- | --- | --- | --- | --- | --- | --- |
| CC[C@H](C)[C@H](NC(=O)[C@@H]1CCCN1C(=O)CNC(=O)[C@H](Cc1ccccc1)NC(=O)[C@H](CC(N)=O)NC(=O)[C@H](CCCCNC(=O)COCCOCCNC(=O)COCCOCCNC(=O)CC[C@H](NC(=O)CCCCCCCCCCCCCCCCCCC(=O)O)C(=O)O)NC(=O)[C@H](CO)NC(=O)[C@H](CO)NC(=O)[C@H](Cc1c[nH]cn1)NC(=O)[C@@H](NC(=O)[C@H](CC(C)C)NC(=O)[C@H](Cc1ccccc1)NC(=O)[C@H](CCC(=O)O)NC(=O)[C@H](C)NC(=O)[C@H](CC(C)C)NC(=O)[C@H](CCCNC(=N)N)NC(=O)[C@H](CCC(N)=O)NC(=O)[C@@H](NC(=O)[C@H](C)NC(=O)[C@@H]1CSSC[C@H](NC(=O)[C@@H](N)CCCCN)C(=O)N[C@@H](CC(N)=O)C(=O)N[C@@H]([C@@H](C)O)C(=O)N[C@@H](C)C(=O)N[C@@H]([C@@H](C)O)C(=O)N1)[C@@H](C)O)C(C)C)C(=O)N[C@@H](CC(C)C)C(=O)N[C@@H](CO)C(=O)N[C@@H](CCCNC(=N)N)C(=O)N[C@H](C(=O)N[C@@H](CC(N)=O)C(=O)N[C@H](C(=O)NCC(=O)N[C@@H](CO)C(=O)N[C@@H](Cc1c[nH]cn1)C(=O)N[C@H](C(=O)N[C@@H](Cc1ccc(O)cc1)C(N)=O)[C@@H](C)O)C(C)C)[C@@H](C)O [Example 147, N-epsilon21-[2-(2-{2-[2-(2-{2-[(S)-4-Carboxy-4-(19-carboxyheptadecanoylamino)butyrylamino]ethoxy}ethoxy)acetylamino]ethoxy}ethoxy)acetyl]-[Glu14,Lys21,Ser28,Arg29,His35]-pramlintide] (H-KCNTATCATQRLAEFLVHSSK([AEEA-AEEA-γGlu-C20 diacid])NFGPILSRTNVGSHTY-NH2; disulfide 2-7) | > 200 | > 200 | > 200 | > 200 | 1 (≈ 4.79 µg/mL) | 1 (≈ 4.79 µg/mL) | 1 (≈ 4.79 µg/mL) | 1 (≈ 4.79 µg/mL) |  |  |  |  |  |
| CC[C@H](C)[C@H](NC(=O)[C@@H]1CCCN1C(=O)CNC(=O)[C@H](Cc1ccccc1)NC(=O)[C@H](CC(N)=O)NC(=O)[C@H](CCCCNC(=O)COCCOCCNC(=O)COCCOCCNC(=O)CC[C@H](NC(=O)CCCCCCCCCCCCCCCCCCC(=O)O)C(=O)O)NC(=O)[C@H](CO)NC(=O)[C@H](CO)NC(=O)[C@H](Cc1c[nH]cn1)NC(=O)[C@H](Cc1c[nH]cn1)NC(=O)[C@H](CC(C)C)NC(=O)[C@H](Cc1ccccc1)NC(=O)[C@H](CCC(=O)O)NC(=O)[C@H](C)NC(=O)[C@H](CC(C)C)NC(=O)[C@H](CCCNC(=N)N)NC(=O)[C@H](CCC(N)=O)NC(=O)[C@@H](NC(=O)[C@H](C)NC(=O)[C@@H]1CSSC[C@H](NC(=O)[C@@H](N)CCCCN)C(=O)N[C@@H](CC(N)=O)C(=O)N[C@@H]([C@@H](C)O)C(=O)N[C@@H](C)C(=O)N[C@@H]([C@@H](C)O)C(=O)N1)[C@@H](C)O)C(=O)N[C@@H](CC(C)C)C(=O)N[C@@H](CO)C(=O)N[C@@H](CO)C(=O)N[C@H](C(=O)N[C@@H](CC(N)=O)C(=O)N[C@H](C(=O)NCC(=O)N[C@@H](CO)C(=O)N[C@@H](Cc1c[nH]cn1)C(=O)N[C@H](C(=O)N[C@@H](Cc1ccc(O)cc1)C(N)=O)[C@@H](C)O)C(C)C)[C@@H](C)O [Example 148, N-epsilon21-[2-(2-{2-[2-(2-{2-[(S)-4-Carboxy-4-(19-carboxyheptadecanoylamino)butyrylamino]ethoxy}ethoxy)acetylamino]ethoxy}ethoxy)acetyl]-[Glu14,His17,Lys21,Ser28,Ser29,His35]-pramlintide] (H-KCNTATCATQRLAEFLHHSSK([AEEA-AEEA-γGlu-C20 diacid])NFGPILSSTNVGSHTY-NH2; disulfide 2-7) | > 200 | > 200 | > 200 | > 200 | 51 (≈ 243 µg/mL) | 19 (≈ 90.5 µg/mL) | 1 (≈ 4.76 µg/mL) | 1 (≈ 4.76 µg/mL) |  |  |  |  |  |

Now from value to compound:

| solubility [1] [µM] | solubility [2] [µM] | solubility [3] [µM] | solubility [4] [µM] | solubility [5] [µM] | solubility [6] [µM] | solubility [7] [µM] | solubility [8] [µM] | solubility [9] [µM] | solubility (pH 7, pH 7.0, Table 8, read-out: Solubility pH 7.0) [µM] | solubility (pH 7, pH 7.0, Table 9, read-out: Solubility pH 7.0) [µM] | solubility (pH 7.5, pH 7.5, Table 9, read-out: Solubility pH 7.5) [µM] | solubility [10] [µM] | SMILES |
| --- | --- | --- | --- | --- | --- | --- | --- | --- | --- | --- | --- | --- | --- |
| > 200 | > 200 | > 200 | > 200 | > 200 | 163 (≈ 788 µg/mL) | > 200 | > 200 | > 200 | > 200 | > 200 | > 200 | > 200 | CC[C@H](C)[C@H](NC(=O)[C@@H]1CCCN1C(=O)CNC(=O)[C@H](Cc1ccccc1)NC(=O)[C@H](CC(N)=O)NC(=O)[C@H](CCCCNC(=O)COCCOCCNC(=O)COCCOCCNC(=O)CC[C@H](NC(=O)CCCCCCCCCCCCCCCCCCC(=O)O)C(=O)O)NC(=O)[C@H](CO)NC(=O)[C@H](CO)NC(=O)[C@H](CCCNC(=N)N)NC(=O)[C@@H](NC(=O)[C@H](CC(C)C)NC(=O)[C@H](Cc1ccccc1)NC(=O)[C@H](CCC(=O)O)NC(=O)[C@H](C)NC(=O)[C@H](CC(C)C)NC(=O)[C@H](CCCNC(=N)N)NC(=O)[C@H](CCC(N)=O)NC(=O)[C@@H](NC(=O)[C@H](C)NC(=O)[C@@H]1CSSC[C@H](NC(=O)[C@@H](N)CCCCN)C(=O)N[C@@H](CC(N)=O)C(=O)N[C@@H]([C@@H](C)O)C(=O)N[C@@H](C)C(=O)N[C@@H]([C@@H](C)O)C(=O)N1)[C@@H](C)O)C(C)C)C(=O)N[C@@H](CC(C)C)C(=O)N[C@@H](CO)C(=O)N[C@@H](CCCNC(=N)N)C(=O)N[C@H](C(=O)N[C@@H](CC(N)=O)C(=O)N[C@H](C(=O)NCC(=O)N[C@@H](CO)C(=O)N[C@@H](CCCNC(=N)N)C(=O)N[C@H](C(=O)N[C@@H](Cc1ccc(O)cc1)C(N)=O)[C@@H](C)O)C(C)C)[C@@H](C)O [Example 150, N-epsilon21-[2-(2-{2-[2-(2-{2-[(S)-4-Carboxy-4-(19-carboxyheptadecanoylamino)butyrylamino]ethoxy}ethoxy)acetylamino]ethoxy}ethoxy)acetyl]-[Glu14,Arg18,Lys21,Ser28,Arg29,Arg35]-pramlintide] (H-KCNTATCATQRLAEFLVRSSK([AEEA-AEEA-γGlu-C20 diacid])NFGPILSRTNVGSRTY-NH2; disulfide 2-7) |
| > 200 | > 200 | > 200 | > 200 | > 200 | > 200 | > 200 | > 200 | > 200 |  |  |  | > 200 | CC[C@H](C)[C@H](NC(=O)[C@@H]1CCCN1C(=O)CNC(=O)[C@H](Cc1ccccc1)NC(=O)[C@H](CC(N)=O)NC(=O)[C@H](CCC(N)=O)NC(=O)[C@H](CO)NC(=O)[C@H](CO)NC(=O)[C@H](Cc1c[nH]cn1)NC(=O)[C@H](CCCNC(=N)N)NC(=O)[C@H](CC(C)C)NC(=O)[C@H](Cc1ccccc1)NC(=O)[C@H](CCC(=O)O)NC(=O)[C@H](C)NC(=O)[C@H](CC(C)C)NC(=O)[C@H](CCCNC(=N)N)NC(=O)[C@H](CCC(N)=O)NC(=O)[C@@H](NC(=O)[C@H](C)NC(=O)[C@@H]1CSSC[C@H](NC(=O)[C@H](CCCNC(=N)N)NC(=O)[C@H](CCC(=O)O)NC(=O)[C@H](CCC(=O)O)NC(=O)CC[C@H](NC(=O)CCCCCCCCCCCCCCCCCCC(=O)O)C(=O)O)C(=O)N[C@@H](CC(N)=O)C(=O)N[C@@H]([C@@H](C)O)C(=O)N[C@@H](C)C(=O)N[C@@H]([C@@H](C)O)C(=O)N1)[C@@H](C)O)C(=O)N[C@@H](CC(C)C)C(=O)N1CCC[C@H]1C(=O)N1CCC[C@H]1C(=O)N[C@H](C(=O)N[C@@H](CCC(N)=O)C(=O)N[C@H](C(=O)NCC(=O)N[C@@H](CO)C(=O)N[C@@H](CCC(N)=O)C(=O)N[C@H](C(=O)N1CCC[C@H]1C(N)=O)[C@@H](C)O)C(C)C)[C@@H](C)O [Example 159, N-alpha-[(S)-4-Carboxy-4-(19-carboxynonadecanoylamino)butyryl]-Glu-Glu-[Arg1,Glu14,Arg17,Gln21,Gln31,Gln35,Pro37]-pramlintide] ({C20 diacid-γGlu}-EERCNTATCATQRLAEFLRHSSQNFGPILPPTQVGSQTP-NH2; disulfide 4-9) |
| > 200 | > 200 | > 200 | > 200 | > 200 | > 200 | > 200 | > 200 | > 200 |  |  |  | > 200 | CC[C@H](C)[C@H](NC(=O)[C@@H]1CCCN1C(=O)CNC(=O)[C@H](Cc1ccccc1)NC(=O)[C@H](CCC(N)=O)NC(=O)[C@H](CCC(N)=O)NC(=O)[C@H](CO)NC(=O)[C@H](CO)NC(=O)[C@H](Cc1c[nH]cn1)NC(=O)[C@H](CCCNC(=N)N)NC(=O)[C@H](CC(C)C)NC(=O)[C@H](Cc1ccccc1)NC(=O)[C@H](CCC(=O)O)NC(=O)[C@H](C)NC(=O)[C@H](CC(C)C)NC(=O)[C@H](CCCNC(=N)N)NC(=O)[C@H](CCC(N)=O)NC(=O)[C@@H](NC(=O)[C@H](C)NC(=O)[C@@H]1CSSC[C@H](NC(=O)[C@H](CCCNC(=N)N)NC(=O)[C@H](CCC(=O)O)NC(=O)[C@H](CCC(=O)O)NC(=O)CC[C@H](NC(=O)CCCCCCCCCCCCCCCCCCC(=O)O)C(=O)O)C(=O)N[C@@H](CC(N)=O)C(=O)N[C@@H]([C@@H](C)O)C(=O)N[C@@H](C)C(=O)N[C@@H]([C@@H](C)O)C(=O)N1)[C@@H](C)O)C(=O)N[C@@H](CC(C)C)C(=O)N1CCC[C@H]1C(=O)N1CCC[C@H]1C(=O)N[C@H](C(=O)N[C@@H](CCC(N)=O)C(=O)N[C@H](C(=O)NCC(=O)N[C@@H](CO)C(=O)N[C@@H](CCC(N)=O)C(=O)N[C@H](C(=O)N1CCC[C@H]1C(N)=O)[C@@H](C)O)C(C)C)[C@@H](C)O [Example 160, N-alpha-[(S)-4-Carboxy-4-(19-carboxynonadecanoylamino)butyryl]-Glu-Glu-[Arg1,Glu14,Arg17,Gln21,Gln22,Gln31,Gln35,Pro37]-pramlintide] ({C20 diacid-γGlu}-EERCNTATCATQRLAEFLRHSSQQFGPILPPTQVGSQTP-NH2; disulfide 4-9) |
